From ChEMBL document CHEMBL4765288, “Synthesis of novel monocarbonyl curcuminoids, evaluation of their efficacy against MRSA, including ex vivo infection model and their mechanistic studies” (Eur J Med Chem, 2020)
Calls of active or inactive are those of the source. The calls are words filed in the database; no cut-off is given here.

Key:
[1] = test system: Staphylococcus aureus; assay: Antibacterial activity against methicillin susceptible Staphylococcus aureus ATCC 29213 after 16 to 18 hrs by CLSI-based microbroth dilution method; format: functional; settings: time 16-18 hrs
[2] = test system: Staphylococcus aureus; assay: Antibacterial activity against methicillin resistant Staphylococcus aureus ATCC 33591 after 16 to 18 hrs by CLSI-based microbroth dilution method; format: functional; settings: time 16-18 hrs
[3] = test system: Staphylococcus aureus; assay: Antibacterial activity against methicillin resistant Staphylococcus aureus ATCC S-28 after 16 to 18 hrs by CLSI-based microbroth dilution method; format: functional; settings: time 16-18 hrs
[4] = test system: Staphylococcus aureus; assay: Antibacterial activity against methicillin resistant Staphylococcus aureus S-30 after 16 to 18 hrs by CLSI-based microbroth dilution method; format: functional; settings: time 16-18 hrs
[5] = test system: Staphylococcus aureus; assay: Antibacterial activity against methicillin resistant Staphylococcus aureus S-33 after 16 to 18 hrs by CLSI-based microbroth dilution method; format: functional; settings: time 16-18 hrs
[6] = test system: Staphylococcus aureus; assay: Antibacterial activity against methicillin resistant Staphylococcus aureus S-34 after 16 to 18 hrs by CLSI-based microbroth dilution method; format: functional; settings: time 16-18 hrs
[7] = test system: Staphylococcus aureus; assay: Antibacterial activity against methicillin resistant Staphylococcus aureus S-37 after 16 to 18 hrs by CLSI-based microbroth dilution method; format: functional; settings: time 16-18 hrs
[8] = test system: Staphylococcus aureus; assay: Antibacterial activity against methicillin resistant Staphylococcus aureus S-41 after 16 to 18 hrs by CLSI-based microbroth dilution method; format: functional; settings: time 16-18 hrs
[9] = test system: Escherichia coli; assay: Antibacterial activity against Escherichia coli ATCC 25922 after 16 to 18 hrs by CLSI-based microbroth dilution method; format: functional; settings: time 16-18 hrs
[10] = test system: Escherichia coli; assay: Antibacterial activity against Escherichia coli ATCC 11775 after 16 to 18 hrs by CLSI-based microbroth dilution method; format: functional; settings: time 16-18 hrs
[11] = test system: Escherichia coli; assay: Antibacterial activity against Escherichia coli E-52 after 16 to 18 hrs by CLSI-based microbroth dilution method; format: functional; settings: time 16-18 hrs
[12] = test system: Escherichia coli; assay: Antibacterial activity against Escherichia coli E-59 after 16 to 18 hrs by CLSI-based microbroth dilution method; format: functional; settings: time 16-18 hrs
[13] = test system: Escherichia coli; assay: Antibacterial activity against Escherichia coli E-74 after 16 to 18 hrs by CLSI-based microbroth dilution method; format: functional; settings: time 16-18 hrs
[14] = Hemolytic activity in mouse RBC at 75 ug/ml after 1 hr by microplate reader analysis relative to control; format: ADME, cell-based, Erythrocyte; settings: mouse red blood cells (erythrocytes), at 75 µg/mL, read-out: Activity
[15] = Hemolytic activity in mouse RBC at 150 ug/ml after 1 hr by microplate reader analysis relative to control; format: ADME, cell-based, Erythrocyte; settings: mouse red blood cells (erythrocytes), at 150 µg/mL, read-out: Activity
[16] = Cytotoxicity against mouse 3T3 cells assessed as reduction in cell viability at 75 ug/ml after 4 hrs by MTT assay (reference value: 90.42 +/- 0.03%); format: cell-based; settings: 3t3, 4 h, at 75 µg/mL
[17] = Cytotoxicity against mouse 3T3 cells assessed as reduction in cell viability at 150 ug/ml after 4 hrs by MTT assay (reference value: 90.42 +/- 0.03%); format: cell-based; settings: at 150 µg/mL, read-out: Activity
[18] = test system: Cell membrane; assay: Induction of cytoplasmic membrane depolarization in methicillin resistant Staphylococcus aureus ATCC 33591 at 5 times MIC by [DiSC3(5)] probe based fluorescence assay relative to control; format: subcellular; settings: time 2.0 hrs
[19] = test system: Cell membrane; assay: Induction of cytoplasmic membrane permeabilization in Staphylococcus aureus ATCC 33591 at 5 times MIC measured after 2 min using calcein-AM as substrate by dye based fluorescence assay relative to control; format: subcellular
[20] = test system: Cell membrane; assay: Induction of cell membrane damage in Staphylococcus aureus ATCC 33591 at 5 times MIC assessed as loss of cell viability measured after 2 hrs by confocal microscopy
[21] = test system: Cell membrane; assay: Induction of cell membrane damage in Staphylococcus aureus ATCC 33591 assessed as membrane surface perturbation with multiple dent and bleb formation at 5 times MIC after 4 hrs by scanning electron microscopy; format: subcellular
[22] = test system: Staphylococcus aureus; assay: Bactericidal activity against methicillin-resistant Staphylococcus aureus assessed as complete bacterial killing at 5 times MIC measured after 6 hrs by time-kill assay; format: functional, organism-based
[23] = test system: Cell membrane; assay: Induction of cytoplasmic membrane permeabilization in Staphylococcus aureus ATCC 33591 at 5 times MIC measured after 120 min using calcein-AM as substrate by dye based fluorescence assay relative to control; format: subcellular
[24] = test system: Staphylococcus aureus; assay: Antibacterial activity against methicillin susceptible Staphylococcus aureus ATCC 29213 infected in mouse 3T3 cells assessed as bacterial load at 5 times MIC after 16 hrs (reference value: 6.6 log CFU/ml); format: functional
[25] = test system: Staphylococcus aureus; assay: Bactericidal activity against methicillin-resistant Staphylococcus aureus assessed as in viable cells at 5 times MIC measured after 1 hr by time-kill assay; format: functional
[26] = test system: Staphylococcus aureus; assay: Bactericidal activity against methicillin-resistant Staphylococcus aureus assessed as reduction in viable count at 5 times MIC measured upto 4 hrs by time-kill assay; format: functional; settings: time hrs <=4

Row | SMILES | MIC [1] [µg/mL] | MIC [2] [µg/mL] | MIC [3] [µg/mL] | MIC [4] [µg/mL] | MIC [5] [µg/mL] | MIC [6] [µg/mL] | MIC [7] [µg/mL] | MIC [8] [µg/mL] | MIC [9] [µg/mL] | MIC [10] [µg/mL] | MIC [11] [µg/mL] | MIC [12] [µg/mL] | MIC [13] [µg/mL] | hemolysis at 1 h, 75 ug/ml [14] [%] | hemolysis at 1 h, 150 ug/ml [15] [%] | Activity [16] [%] | viability at 4 h, 150 ug/ml [17] [%] | Activity [18] [%] | Activity [19] [%] | Activity [20] | further results
1 | COc1cc(/C=C2\CC/C(=C\c3ccc(OCCCN4CCCCCC4)c(OC)c3)C2=O)ccc1OCCCN1CCCCCC1.Cl.Cl | 2 | 4 | 8 | 8 | 8 | 8 | 8 | 8 | 16 | 16 | 32 | 32 | 32 | 6.19 | 9.32 | 7.03 | 14.8 | 95.7 | 80.6 | Active | Activity [21]: Active; Activity [22]: Active; Activity [23]: 93.2%; Activity [24]: 3.91 log10CFU/ml
2 | COc1cc(/C=C/C(=O)CC(=O)/C=C/c2ccc(O)c(OC)c2)ccc1O [CURCUMIN] | > 256 | > 256 |  |  |  |  |  |  |  |  |  |  |  |  |  |  |  |  |  |  | 
3 | CCOc1cc(/C=C2\CC/C(=C\c3ccc(OCCCN4CCCC(C)C4)c(OCC)c3)C2=O)ccc1OCCCN1CCCC(C)C1.Cl.Cl (centres undefined) | 2 | 4 | 8 | 8 | 8 | 8 | 8 | 8 | 8 | 8 | 16 | 32 | 32 | 6.19 | 9.32 | 7.03 | 14.8 | 87 | 60.2 | Active | Activity [25]: -3.4 log10CFU/ml; Activity [21]: Active; Activity [23]: 92.7%; Activity [24]: 3.99 log10CFU/ml
4 | Cl.Cl.O=C1/C(=C/c2ccc(OCCCCN3CCCCCC3)cc2)CC/C1=C\c1ccc(OCCCCN2CCCCCC2)cc1 | 4 | 4 | 4 | 4 | 8 | 8 | 8 | 8 | 16 | 16 | 16 | 32 | 32 | 6.19 | 9.32 | 7.03 | 14.8 | 95.7 | 76.6 | Active | Activity [21]: Active; Activity [26]: 4.3 log10CFU/ml; Activity [23]: 90.3%; Activity [24]: 3 log10CFU/ml
